From patent publication US20030003492A1, “Colorimetric nanocrystal sensors, methods of making, and use thereof” (priority 2001, published 2003)

Key:
[1] = Binding to lipid A; details: binding of lipid A; read-out: dissociation constant
[2] = Binding to simple sugars like glucosamine; details: much lower affinity than for lipid A

tetratryptophan ter-cyclopentane [TWTCP]
Kd [1]: 0.592 µM | Kd [2]: ~20 µM
